Experimental findings from patent publication US11840686B2, “Modulation of prekallikrein (PKK) expression” (Ionis Pharmaceuticals, Inc., priority 2013, dated 2023) are described below.

The subject of data set [1] is human PKK mRNA. Nature of the data set: Antisense inhibition of human PKK mRNA in HepaRG cells, 1,000 nM, MOE/deoxy/cEt oligonucleotides (Example 3). The format is cell-based. Summed up:
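HepaRG cells at 20,000 per well electroporated with 1,000 nM 16-mer MOE/cEt/deoxy gapmers (phosphorothioate, 5-methylcytosine). After about 24 h, PKK mRNA measured by qRT-PCR with primer probe set RTS3454, normalized to RIBOGREEN total RNA. Reported as percent inhibition versus untreated cells.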

Data set [2] relates to Factor 12. Description: Factor 12 activation in mouse plasma, Spectrozyme FXIIa amidolytic assay (Example 17). The data set is classed as in vivo. Conditions: for % F12 activation compared to the PBS control: 3 weeks, mouse plasma. On the procedure: The effect of antisense inhibition of PKK mRNA on Factor 12 protein activation was evaluated.
Group 1 consisted of 8 mice and was treated with PBS administered subcutaneously twice a week for 3 weeks. No other treatment was administered to Group 1 which served as a control group to measure Factor 12 activation.
Groups 2, 3, 4, 5, and 6 consisted of 8 mice each and were treated with 2.5 mg/kg, 5 mg/kg, 10 mg/kg, 20 mg/kg, or 40 mg/kg (corresponding to 5 mg/kg, 10 mg/kg, 20 mg/kg, 40 mg/kg, or 80 mg/kg per week), respectively of ISIS 482584 administered subcutaneously twice a week for 3 weeks. Groups 2-6 served as the treatment groups for measuring the effect of ISIS 482584 on Factor 12 activation.
At the end of the treatment period, plasma was harvested from the mice for the Spectrozyme® Factor 12a based amidolytic assay for Factor 12 in plasma.
Plasma (5 μL) was added to 85 μL of PBS with 1 μg/ml dextran sulfate (500 kDa) in a 96 well polypropelene microplate and the solution was incubated for 5 minutes at room temperature. Spectrozyme® FXIIa (10 μL of a 2 mM solution) and 0.2 mM KALLISTOP™ solution was added and the absorbance kinetic was measured at 405 nm. Factor 12 activation was measured in the linear phase of absorbance accumulation. The results are presented in Table 78 as a percentage of Factor 12 activation measured in the PBS control sample.

Data set [3] concerns high molecular weight kininogen (HMWK). Nature of the data set: Western blot quantification of HMWK and HMWK cleavage product by densitometer (Example 14). The data set is classed as in vivo, mouse. Conditions: for Quantification of HMWK by densitometer / Quantification of HMWK cleavage product by densitometer: Western blot of blood samples, basal model. An excerpt: Treatment with PKK antisense oligonucleotide results in stabilization of HMWK. Thus, vascular permeability is reduced in ISIS 482584-treated groups in a dose-dependent manner. […] Thus, reduced HMWK is caused by PKK cleavage of HMWK into cleavage products (including bradykinin and HKa). Data are presented in Intensity Units as measured by densitometer.

Strand notation (5' to 3'): a small letter for the sugar, then the base; units joined by * are phosphorothioate-linked, units joined directly phosphodiester-linked; [ ] holds rarer units or linkages, { } end groups; capitals alone tell only the bases. e = 2'-O-(2-methoxyethyl) (MOE); [5mC] = 5-methylcytosine; d = 2'-deoxy (DNA)

For “531231 (eT*eA*eT*e[5mC]*eA*d[5mC]*dT*dG*dT*dA*d[5mC]*dT*dA*dG*dT*eT*eT*e[5mC]*e[5mC]*eT) [compound 531231]”, the % inhibition – broadly, the share of the control response that was lost under treatment – in data set [1] (HepaRG cells, 1,000 nM antisense oligonucleotide, Table 29) worked out at 46%; in data set [1] (HepaRG cells, electroporation with 1,000 nM antisense oligonucleotide, approx. 24 hours, PKK mRNA by RT-PCR (RTS3454), relative to untreated control cells, Table 25 experiment), 19%; in data set [1] (HepaRG cells, electroporation with 1,000 nM antisense oligonucleotide, approx. 24 hours, PKK mRNA by RT-PCR (RTS3454), relative to untreated control cells, Table 26 experiment), 42%; in data set [1] (HepaRG cells, electroporation with 1,000 nM antisense oligonucleotide, approximately 24 hours, primer probe set RTS3454, relative to untreated control cells, experiment of Table 23) it was 16%; in data set [1] (HepaRG cells, electroporation with 1,000 nM antisense oligonucleotide, approximately 24 hours, primer probe set RTS3454, relative to untreated control cells, experiment of Table 24), 0%; in data set [1] (PKK mRNA, HepaRG cells, 1,000 nM antisense oligonucleotide, Table 31), 48%. Also, the “% inhibition” value in data set [1] (Table 21 experiment, HepaRG cells, electroporation with 1,000 nM antisense oligonucleotide, approx. 24 hours, PKK mRNA by RT-PCR (RTS3454), relative to untreated control cells) is given as 62%; in data set [1] (Table 22 experiment, HepaRG cells, electroporation with 1,000 nM antisense oligonucleotide, approx. 24 hours, PKK mRNA by RT-PCR (RTS3454), relative to untreated control cells) it was 75%; in data set [1] (Table 27, HepaRG cells, 1,000 nM antisense oligonucleotide, human PKK mRNA), 72%; in data set [1] (Table 28, HepaRG cells, 1,000 nM antisense oligonucleotide, human PKK mRNA) it was 46%; in data set [1] (Table 30, human PKK mRNA, HepaRG cells, 1,000 nM antisense oligonucleotide), 46%.

As for “ISIS 482584: 5-10-5 MOE gapmer targeting murine PKK, GGCATATTGGTTTTTGGAAT; SEQ ID NO: 2244 (antisense eG*eG*e[5mC]*eA*eT*dA*dT*dT*dG*dG*dT*dT*dT*dT*dT*eG*eG*eA*eA*eT)”, the “% F12 activation compared to the PBS control” value turned out to be 82% in data set [2] (5 mg/kg/wk sc); 63% in data set [2] (10 mg/kg/wk sc); 47% in data set [2] (20 mg/kg/wk sc); 24% in data set [2] (40 mg/kg/wk sc); 14% in data set [2] (80 mg/kg/wk sc). The “activation of Factor 12” value in data set [2] (mouse plasma after 3 weeks s.c. treatment) is listed as “decreased activation of Factor 12”. Further, the “Quantification of HMWK by densitometer” value in data set [3] (10 mg/kg/week) was found to be 507 Intensity Units; in data set [3] (20 mg/kg/week), 608 Intensity Units; in data set [3] (40 mg/kg/week), 873 Intensity Units; in data set [3] (80 mg/kg/week) it was 7279 Intensity Units; in data set [3] (160 mg/kg/week) it was 21358 Intensity Units. Also, the “Quantification of HMWK cleavage product by densitometer” value in data set [3] (10 mg/kg/week) was 414774 Intensity Units; in data set [3] (20 mg/kg/week) it was 403360 Intensity Units; in data set [3] (40 mg/kg/week), 388135 Intensity Units; in data set [3] (80 mg/kg/week), 204482 Intensity Units; in data set [3] (160 mg/kg/week), 19936 Intensity Units. Moreover, the “HMWK cleavage product” value in data set [3] (vs PBS control, dose-dependent) is “lower HMWK cleavage product”. Further, in data set [3] (vs PBS control, dose-dependent), the “levels of HMWK” value is “higher levels of HMWK”.
